No end group written: not given here.

What all share (experiment): biochemical
Common to all, as to assay type: binding

Assay [1] addresses HLA-DR DRB5*0101 (DR51) (Homo sapiens, UniProt P01903+Q30154). Conditions: DRB5 *0101.
Assay [2] concerns the target HLA-DR DRB1*0301 (DR3) (Homo sapiens, UniProt P01903+P01911, A100K/A102G/A103R/A169T/F55Y/I96L/K41T/L162R/M171V/P40S/Q125H/Q178H/Q39Y/R42S/S66N/T106N/T262R/W38E/Y61H).
In assay [3] the target is HLA-DR DRB4*0101 (DR53) (Homo sapiens, UniProt P01903+P13762, G164S). To be noted: DRB4 *0101.
Assay [4] deals with HLA-DR DRB3*0101 (DR52) (Homo sapiens, UniProt P01903+P79483).
Assay [5] addresses HLA-DR DRB1*0802 (DR8) (Homo sapiens, UniProt P01903+P01911, A100R/A103L/A169T/F76Y/H45Y/I96F/K41T/L162R/M171V/P40S/Q125H/Q178H/Q39Y/Q99D/R218S/R42G/S66Y/V115G/W38E).
In assay [6] the target is HLA-DR DRB1*0901 (DR9) (Homo sapiens, UniProt P01903+P01911, A100R/A103E/D57H/D86V/F55Y/F60I/F76Y/I96F/K127E/L162R/M171V/P40D/Q125H/Q99R/R33Q/R42F/S133A/S66N/T210M/V115G/W38K/Y107V/Y59G/Y89S). Conditions: DRB1 *0901.
Assay [7] deals with HLA-DR DRB1*1302 (DR13) (Homo sapiens, UniProt P01903+P01911, A100E/A169T/K41T/L162R/M171V/P40S/Q125H/Q178H/Q39Y/Q99D/R42S/S66N/T262R/V115G/W38E/Y61H). To be noted: DRBI *1302.
In assay [8] the target is HLA-DR DRB1*0101 (DR1) (Homo sapiens, UniProt P01903+P01911, A100R/D57E/F55L/F60I/F76Y/I96L/L162R/M171V/P40L/Q125E/R42F/V115G/Y59C). To be noted: DRB1 *0101.
In assay [9] the target is HLA-DR DRB1*0701 (DR7) (Homo sapiens, UniProt P01903+P01911, A100R/A102G/A103Q/D57E/D86V/E43K/F76Y/K127E/L162R/M171V/P40G/Q125H/Q99D/R33Q/R42Y/R54Q/S133A/S66F/T210M/V115G/Y107V/Y59L/Y89S). Conditions: DRB1 *0701.
Assay [10] has as its target HLA-DR DRB1*1101 (DR11) (Homo sapiens, UniProt P01903+P01911, A100R/A169T/A87E/I96F/K41T/L162R/M171V/P40S/Q125H/Q178H/Q39Y/Q99D/R42S/S66Y/T262R/V115G/W38E). To be noted: DRB1 *1101.
The target of assay [11] is HLA-DR DRB1*1501 (DR15) (Homo sapiens, UniProt P01903+P01911). To be noted: DRBI *1501.
Assay [12] deals with HLA-DR DRB1*0401 (DR4) (Homo sapiens, UniProt P01903+P01911, A100K/A169T/F76Y/I96L/K127E/L162R/M171V/N62H/P40V/Q125Y/R42H/S133A/S149N/S66Y/V115G/V209L/W38E). To be noted: DRB1 *0401.

Chain of HLA-DR DRB1*1302 (DR13) (P01903 26-254 limits assumed, other chains not shown): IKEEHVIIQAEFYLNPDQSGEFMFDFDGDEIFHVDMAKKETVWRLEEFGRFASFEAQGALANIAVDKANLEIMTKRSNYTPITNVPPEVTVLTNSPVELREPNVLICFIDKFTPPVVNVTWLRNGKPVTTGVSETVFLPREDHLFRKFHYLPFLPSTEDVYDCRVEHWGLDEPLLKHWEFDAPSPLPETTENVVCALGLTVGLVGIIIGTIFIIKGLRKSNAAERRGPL
Chain of HLA-DR DRB1*1101 (DR11) (P01903 26-254 limits assumed, other chains not shown): as above
Chain of HLA-DR DRB1*0301 (DR3) (P01903 26-254 limits assumed, other chains not shown): as above

For the compound `CC(C)C[C@H](NC(=O)[C@H](Cc1ccccc1)NC(=O)CNC(=O)[C@H](CC(C)C)NC(=O)[C@H](CO)NC(=O)[C@H](CC(C)C)NC(=O)[C@H](CO)NC(=O)[C@H](C)NC(=O)[C@H](C)NC(=O)[C@H](CCCNC(=N)N)NC(=O)[C@H](C)NC(=O)[C@H](CC(C)C)NC(=O)[C@H](CC(C)C)NC(=O)[C@H](CC(C)C)NC(=O)[C@@H]1CCCN1)C(=O)O`, the half-maximal inhibitory concentration (IC50) (commonly the concentration that inhibits the measured activity by half) in assay [1] is 0.151 µM; in [2] it was over 81.8 µM; in assay [3], 0.052 µM; in [4], over 9.74 µM; in [5], 0.037 µM; in assay [6], 0.058 µM. In addition, the IC50 in assay [7] turned out to be 0.012 µM; in [8] it was 0.01 µM.
As to `CC(C)C[C@H](NC(=O)CNC(=O)[C@H](CC(N)=O)NC(=O)[C@@H](N)Cc1ccc(O)cc1)C(=O)N[C@@H](CC(C)C)C(=O)N1CCC[C@H]1C(=O)N1CCC[C@H]1C(=O)N[C@@H](Cc1ccc(O)cc1)C(=O)N[C@@H](C)C(=O)N[C@@H](CO)C(=O)N[C@@H](CS)C(=O)N[C@@H](Cc1c[nH]cn1)C(=O)N[C@@H](CC(C)C)C(=O)N[C@H](C(=O)N[C@@H](CCC(=O)O)C(=O)O)[C@@H](C)O`, the IC50 in assay [1] is at least 100 µM; in assay [3], over 10.9 µM; in assay [4], over 15 µM; in assay [9], over 83.3 µM; in assay [5] it was 14 µM; in assay [6] it was 8.02 µM. The IC50 in [10] amounted to 5.3 µM; in assay [11], 0.252 µM; in assay [7] it was 11.7 µM; in [8], 0.042 µM; in assay [12] it was 6.19 µM.
Regarding KSRLQGGVLVNEILN, the IC50 was over 100 µM in assay [1]; 0.713 µM in assay [3]; over 15 µM in [4]; 2.84 µM in assay [9]; over 81.7 µM in [5]; 5.52 µM in [6]. Besides, the half-maximal inhibitory concentration (IC50) was over 66.7 µM in assay [10]; over 30.3 µM in assay [11]; 0.318 µM in assay [7]; 0.362 µM in assay [8]; over 26.7 µM in [12].
In the case of `CC[C@H](C)[C@H](NC(=O)[C@H](CO)NC(=O)[C@H](CO)NC(=O)[C@H](CC(=O)O)NC(=O)[C@H](C)NC(=O)[C@H](CC(N)=O)NC(=O)[C@@H](NC(=O)[C@H](Cc1ccc(O)cc1)NC(=O)[C@H](C)NC(=O)[C@@H](NC(=O)CNC(=O)[C@H](CCCNC(=N)N)NC(=O)[C@@H](N)CCC(=O)O)C(C)C)[C@@H](C)CC)C(=O)N[C@@H](CCC(=O)O)C(=O)NCC(=O)O`, the IC50 in assay [1] is at least 200 µM; in assay [3], 0.087 µM; in [4], 6.85 µM; in assay [9], 34 µM; in [5] it was over 163 µM; in assay [6] it was 25.5 µM. For the same compound, the IC50 in [10] was over 50 µM; in assay [11], 30.3 µM; in assay [7], 3.69 µM; in assay [8] it was 2.44 µM; in assay [12], 6.76 µM.
Turning to SLSLGFLFLLFFWLD, the IC50 in [1] is 66.7 µM; in assay [3], over 11 µM; in assay [4], 3.71 µM; in assay [9], 22.7 µM; in [5], over 123 µM; in [6] it was 24.6 µM. The IC50 in [10] was found to be 100 µM; in assay [11] it was 11.4 µM; in [7] it was 0.639 µM; in assay [8] it was 11.4 µM; in assay [12], 4.71 µM.
Take PEEFLRPRSLQCVSL: the concentration for half-maximal inhibition (IC50) was 57.5 µM in [1]; 0.117 µM in assay [3]; over 14.4 µM in assay [4]; 5.16 µM in assay [9]; 2.21 µM in [5]; 5.84 µM in [6]. Besides, the half-inhibitory concentration (IC50) in assay [10] is 10.7 µM; in assay [11], 3.19 µM; in [7], 11.7 µM; in [8], 2 µM; in [12], over 26.7 µM.
Turning to `CC[C@H](C)[C@H](NC(=O)[C@H](CO)NC(=O)[C@H](CC(C)C)NC(=O)[C@@H](NC(=O)[C@H](CC(C)C)NC(=O)[C@@H](N)CC(=O)O)C(C)C)C(=O)N[C@@H](C)C(=O)N[C@@H](CC(C)C)C(=O)N[C@@H](CO)C(=O)N[C@H](C(=O)NCC(=O)N[C@@H](CS)C(=O)N[C@H](C(=O)NCC(=O)N[C@@H](C)C(=O)O)[C@@H](C)O)C(C)C`, the IC50 was over 100 µM in assay [1]; 0.459 µM in [3]; over 14.9 µM in [4]; 4.03 µM in assay [9]; over 245 µM in assay [5]; 2.2 µM in assay [6]. Besides, the concentration for half-maximal inhibition (IC50) was over 200 µM in assay [10]; 18.2 µM in assay [11]; 0.098 µM in assay [7]; 1.2 µM in assay [8]; 13 µM in assay [12].
As to `CC[C@H](C)[C@H](NC(=O)CNC(=O)[C@H](CCCNC(=N)N)NC(=O)[C@H](CCCNC(=N)N)NC(=O)[C@H](Cc1ccc(O)cc1)NC(=O)[C@H](C)NC(=O)[C@H](Cc1ccc(O)cc1)NC(=O)[C@@H](N)CCC(=O)O)C(=O)N[C@@H](C)C(=O)N[C@@H](CCC(=O)O)C(=O)N[C@@H](C)C(=O)N[C@H](C(=O)NCC(=O)N[C@@H](CC(C)C)C(=O)N1CCC[C@H]1C(=O)O)C(C)C`, the IC50 in assay [1] amounted to 1.2 µM; in assay [3] it was 6.32 µM; in assay [4] it was 8.77 µM; in [9] it was 0.07 µM; in [5], 0.596 µM; in [6], 0.067 µM. For the same compound, the IC50 in assay [10] was 2.59 µM; in assay [11] it was over 45.5 µM; in assay [7] it was 5.22 µM; in assay [8], 0.0051 µM; in assay [12] it was 0.213 µM.
`CC[C@H](C)[C@H](NC(=O)[C@H](CO)NC(=O)[C@@H](NC(=O)CN)C(C)C)C(=O)N[C@@H](Cc1c[nH]c2ccccc12)C(=O)N[C@@H](CC(N)=O)C(=O)N1CCC[C@H]1C(=O)N[C@H](C(=O)N[C@@H](CC(C)C)C(=O)N[C@@H](CC(C)C)C(=O)N[C@@H](Cc1c[nH]c2ccccc12)C(=O)N[C@@H](CCC(N)=O)C(=O)N1CCC[C@H]1C(=O)N[C@H](C(=O)N1CCC[C@H]1C(=O)O)[C@@H](C)CC)[C@@H](C)CC`: the IC50 in assay [1] was found to be 0.523 µM; in [2], 56.3 µM; in assay [3], 0.492 µM; in assay [4] it was 4.43 µM; in assay [9], 4.99 µM; in assay [5], 11 µM. Besides, the 50% inhibitory concentration (IC50) came to 3.98 µM in assay [6], 0.005 µM in assay [11] and 0.044 µM in assay [8].
Turning to `CC[C@H](C)[C@H](NC(=O)[C@@H]1CCCN1C(=O)[C@H](CCC(N)=O)NC(=O)[C@@H](N)Cc1c[nH]c2ccccc12)C(=O)N1CCC[C@H]1C(=O)N[C@H](C(=O)N[C@@H](Cc1c[nH]cn1)C(=O)N[C@H](C(=O)N[C@H](C(=O)N1CCC[C@H]1C(=O)N[C@@H](CC(C)C)C(=O)N[C@@H](CO)C(=O)N[C@@H](CCC(=O)O)C(=O)N[C@@H](CC(=O)O)C(=O)N[C@@H](CCC(N)=O)C(=O)O)C(C)C)[C@@H](C)O)C(C)C`, the half-inhibitory concentration (IC50) in [1] is over 100 µM; in assay [3], 1.23 µM; in assay [4], over 8.83 µM; in [9] it was 0.159 µM; in assay [5], over 81.7 µM; in assay [6], 17.5 µM. Moreover, the IC50 in assay [10] was over 66.7 µM; in assay [11] it was over 45.5 µM; in assay [7], 2.69 µM; in assay [8], 6.39 µM; in assay [12], over 26.7 µM.

The values above are taken from patent US20060079453A1, “Hla binding peptides and their uses” (priority 2002, published 2006).
